System: TCG codon, mammalian cells
Experiment: TCG codon recoding efficiency of all amino acids (Table 1)
Type: cell-based
Details: TCG codon recoding of the unnatural amino acid with the aaRS and mutation of the same table line; class symbols
Excerpt: Specific details are shown in Table 1 below, where “wt” represents the wild-type aminoacyl-tRNA synthetase, “mutation sites” indicate the positions and types of mutations related to specific unnatural amino acid binding on the wild-type aminoacyl-tRNA synthetase, and “unnatural amino acid” represents the unnatural amino acid corresponding to the mutated aminoacyl-tRNA synthetase. In the unnatural amino acid encoding efficiency, “+” indicates a recoding efficiency greater than 40%, “++” greater than 60%, and “+++” greater than 80%.
Accordingly, this application compiles all amino acids reported in the literature that are recognized by orthogonal aminoacyl-tRNA synthetases in mammalian systems and evaluates their recoding efficiency using the TCG codon as an example.

Row | SMILES | Recoding rate (%)
1 | CC(OC(=O)CC(N)C(=O)O)c1ccccc1[N+](=O)[O-] (mixture of isomers) [compound 262] | ++ (“++” greater than 60%)
2 | CC(SCC(N)C(=O)O)c1cc2c(cc1[N+](=O)[O-])OCO2 (mixture of isomers) [compound 269] | + (“+” indicates a recoding efficiency greater than 40%)
3 | CC(OC(=O)NCSCC(N)C(=O)O)c1cc2c(cc1[N+](=O)[O-])OCO2 (mixture of isomers) [compound 270] | + (“+” indicates a recoding efficiency greater than 40%)
4 | CC(OC(=O)NCSCCC(N)C(=O)O)c1cc2c(cc1[N+](=O)[O-])OCO2 (mixture of isomers) [compound 271] | + (“+” indicates a recoding efficiency greater than 40%)
5 | CC([Se]CC(N)C(=O)O)c1cc2c(cc1[N+](=O)[O-])OCO2 (mixture of isomers) [compound 275] | + (“+” indicates a recoding efficiency greater than 40%)
6 | CC(SCCOC(=O)NCC(N)C(=O)O)c1cc2c(cc1[N+](=O)[O-])OCO2 (mixture of isomers) [compound 276] | + (“+” indicates a recoding efficiency greater than 40%)
7 | N[C@@H](Cc1ccc2ncccc2c1)C(=O)O [compound 230] | + (“+” indicates a recoding efficiency greater than 40%)
8 | N[C@@H](Cc1ccc(Oc2ccc(O)cc2)cc1)C(=O)O [compound 231] | ++ (“++” greater than 60%)
9 | N[C@@H](Cc1ccc(OCC2CCCC2)cc1)C(=O)O [compound 238] | ++ (“++” greater than 60%)
10 | CC#CCOc1ccc(C[C@H](N)C(=O)O)cc1 [compound 239] | ++ (“++” greater than 60%)
11 | C=CCCOc1ccc(C[C@H](N)C(=O)O)cc1 [compound 242] | ++ (“++” greater than 60%)
12 | C=CCCCOc1ccc(C[C@H](N)C(=O)O)cc1 [compound 243] | ++ (“++” greater than 60%)
13 | N[C@@H](Cc1ccc2c(c1)OCO2)C(=O)O [compound 248] | + (“+” indicates a recoding efficiency greater than 40%)
14 | N[C@@H](Cc1ccc2ccccc2c1)C(=O)O [compound 249] | + (“+” indicates a recoding efficiency greater than 40%)
15 | N[C@@H](Cc1cn(Cc2ccccc2[N+](=O)[O-])cn1)C(=O)O [compound 254] | ++ (“++” greater than 60%)
16 | N[C@@H](CCC(=O)OCc1ccccc1[N+](=O)[O-])C(=O)O [compound 263] | + (“+” indicates a recoding efficiency greater than 40%)
17 | N[C@@H](CCC(=O)OCc1cc2c(cc1[N+](=O)[O-])OCO2)C(=O)O [compound 264] | ++ (“++” greater than 60%)
18 | N[C@@H](CCC(=O)OCc1ccccc1)C(=O)O [compound 265] | ++ (“++” greater than 60%)
19 | N[C@@H](CC(=O)SCCNC(=O)OC1CCCC1)C(=O)O [compound 267] | ++ (“++” greater than 60%)

Row | SMILES | Recoding rate (%)
20 | N[C@@H](CSCc1ccccc1[N+](=O)[O-])C(=O)O [compound 268] | + (“+” indicates a recoding efficiency greater than 40%)
21 | C=CC[Se]C[C@H](N)C(=O)O [compound 272] | + (“+” indicates a recoding efficiency greater than 40%)
22 | C#CCSC[C@H](N)C(=O)O [compound 273] | + (“+” indicates a recoding efficiency greater than 40%)
23 | N[C@@H](CCSCNC(=O)Cc1ccccc1)C(=O)O [compound 274] | ++ (“++” greater than 60%)
24 | CN(C)c1ccc(-c2oc(N)nc2C(=O)O)cc1 [compound 279] | ++ (“++” greater than 60%)
25 | C=CCSC[C@H](N)C(=O)O [compound 280] | + (“+” indicates a recoding efficiency greater than 40%)
26 | N[C@@H](Cc1c[nH]c2c3c(ccc12)OCC3)C(=O)O [compound 285] | ++ (“++” greater than 60%)
27 | N[C@@H](Cc1ccc(OS(=O)(=O)F)cc1)C(=O)O [compound 287] | +++ (“+++” greater than 80%)
28 | CN(C)c1cccc(C[C@H](N)C(=O)O)c1 [compound 288] | +++ (“+++” greater than 80%)
29 | N[C@@H](Cc1cccc(N2CCCC2)c1)C(=O)O [compound 289] | ++ (“++” greater than 60%)
30 | Cc1ccc2c(C[C@H](N)C(=O)O)c[nH]c2c1C [compound 295] | +++ (“+++” greater than 80%)
31 | COc1ccc2c(C[C@H](N)C(=O)O)c[nH]c2c1OC [compound 296] | +++ (“+++” greater than 80%)
32 | COc1cccc2c(C[C@H](N)C(=O)O)c[nH]c12 [compound 303] | +++ (“+++” greater than 80%)
33 | N[C@@H](Cc1ccc(C#CCCC2CCCC2)cc1)C(=O)O [compound 304] | ++ (“++” greater than 60%)
34 | CCCCC#Cc1ccc(C[C@H](N)C(=O)O)cc1 [compound 310] | +++ (“+++” greater than 80%)
35 | CCCCCC#Cc1ccc(C[C@H](N)C(=O)O)cc1 [compound 311] | +++ (“+++” greater than 80%)
36 | CCCCCCC#Cc1ccc(C[C@H](N)C(=O)O)cc1 [compound 312] | ++ (“++” greater than 60%)
37 | CCCCCCCC#Cc1ccc(C[C@H](N)C(=O)O)cc1 [compound 313] | + (“+” indicates a recoding efficiency greater than 40%)

Same assay, conditions: TCG codon recoding of the unnatural amino acid with the aaRS and mutation of the same table line; numeric values

Row | SMILES | Recoding rate (%)
38 | N[C@@H](Cc1cccc(F)c1F)C(=O)O [compound 228] | 80? %
39 | N[C@@H](Cc1cc(F)c(F)cc1F)C(=O)O [compound 229] | 83%
40 | N[C@@H](Cc1ccccc1[N+](=O)[O-])C(=O)O [compound 232] | 72%
41 | N[C@@H](Cc1cccc(C(F)(F)F)c1)C(=O)O [compound 234] | 81%
42 | N#Cc1cccc(C[C@H](N)C(=O)O)c1 [compound 235] | 74%
43 | N[C@@H](Cc1cccc([N+](=O)[O-])c1)C(=O)O [compound 237] | 85%
44 | N[C@@H](Cc1ccc(OCc2ccccc2)cc1)C(=O)O [compound 240] | 46%
45 | C=CCOc1ccc(C[C@H](N)C(=O)O)cc1 [compound 241] | 83%
46 | CC(C)(C)Oc1ccc(C[C@H](N)C(=O)O)cc1 [compound 244] | 72%
47 | N[C@@H](Cc1cc(Br)ccc1Cl)C(=O)O [compound 245] | 75%
48 | N[C@@H](Cc1cc(Cl)ccc1Cl)C(=O)O [compound 246] | 84%
49 | N[C@@H](Cc1cccnc1)C(=O)O [compound 247] | 83%
50 | N[C@@H](Cc1c[nH]c2c(F)cccc12)C(=O)O [compound 250] | 74%
51 | N[C@@H](Cc1c[nH]c2ncccc12)C(=O)O [compound 251] | 22%
52 | N[C@@H](Cc1csc2ccccc12)C(=O)O [compound 252] | 89%
53 | Cn1cncc1C[C@H](N)C(=O)O [compound 253] | 85%
54 | N[C@@H](Cc1ccsc1)C(=O)O [compound 256] | 64%
55 | N[C@@H](Cc1cncs1)C(=O)O [compound 257] | 91%
56 | N[C@@H](Cc1cccs1)C(=O)O [compound 258] | 72%
57 | N[C@@H](Cc1ccc(Br)s1)C(=O)O [compound 259] | 87%
58 | N[C@@H](Cc1ccco1)C(=O)O [compound 260] | 43%
59 | N[C@@H](CC(=O)OCc1ccccc1[N+](=O)[O-])C(=O)O [compound 261] | 23%

Row | SMILES | Recoding rate (%)
60 | N[C@@H](CC(=O)OCc1ccccc1)C(=O)O [compound 266] | 75%
61 | N[C@@H](Cc1ccc2c(c1)C(=O)C1C=CC=CC1N2)C(=O)O (some centres unmarked) [compound 277] | 63%
62 | CCCSC(=O)CCC(=O)NCCCC[C@H](N)C(=O)O [compound 283] | 55%
63 | CCCSC(=O)CCCC(=O)NCCCC[C@H](N)C(=O)O [compound 284] | 57%
64 | N[C@@H](Cc1cccc(I)c1)C(=O)O [compound 286] | 61%
65 | Cc1ccc2c(C[C@H](N)C(=O)O)c[nH]c2c1 [compound 290] | 76%
66 | N[C@@H](Cc1c[nH]c2cc(Cl)ccc12)C(=O)O [compound 291] | 73%
67 | N[C@@H](Cc1c[nH]c2cc(Br)ccc12)C(=O)O [compound 292] | 73%
68 | N#Cc1ccc2c(C[C@H](N)C(=O)O)c[nH]c2c1 [compound 293] | 84%
69 | COc1ccc2c(C[C@H](N)C(=O)O)c[nH]c2c1 [compound 294] | 63%
70 | N[C@@H](Cc1ccc(I)cc1)C(=O)O [compound 297] | 43%
71 | [N-]=[N+]=Nc1ccc(C[C@H](N)C(=O)O)cc1 [compound 298] | 88%
72 | N[C@@H](Cc1csc2ccccc12)C(=O)O [compound 299] | 84%
73 | Cc1cccc2c(C[C@H](N)C(=O)O)c[nH]c12 [compound 300] | 69%
74 | N[C@@H](Cc1c[nH]c2c(Cl)cccc12)C(=O)O [compound 301] | 71%
75 | N#Cc1cccc2c(C[C@H](N)C(=O)O)c[nH]c12 [compound 302] | 69%
76 | CC(=O)c1ccc(C[C@H](N)C(=O)O)cc1 [compound 305] | 92%
77 | N#Cc1cccc(C[C@H](N)C(=O)O)c1 [compound 306] | 75%
78 | N[C@@H](Cc1ccc2ccccc2c1)C(=O)O [compound 307] | 66%
79 | COc1ccc(C[C@H](N)C(=O)O)cc1 [compound 308] | 68%
80 | Cn1cc(C[C@H](N)C(=O)O)c2ccccc21 [compound 309] | 63%
